Laboratory results published in article PMC5048659 (Arthritis Research & Therapy, 2016).

Assays:
OAT1 = target: T1, OAT1 (Homo sapiens, UniProt Q4U2R8); experiment: OAT1 6-carboxyfluorescein transport in transfected HEK-293T cells; assay type: cell-based; details: 5 μM 6-carboxyfluorescein, 2 min; mean ± SEM; read-out: Potency (IC50) against OAT1
T1 construct: host or cells: HEK-293T, transient transfection
T1 sequence (Q4U2R8 1-563): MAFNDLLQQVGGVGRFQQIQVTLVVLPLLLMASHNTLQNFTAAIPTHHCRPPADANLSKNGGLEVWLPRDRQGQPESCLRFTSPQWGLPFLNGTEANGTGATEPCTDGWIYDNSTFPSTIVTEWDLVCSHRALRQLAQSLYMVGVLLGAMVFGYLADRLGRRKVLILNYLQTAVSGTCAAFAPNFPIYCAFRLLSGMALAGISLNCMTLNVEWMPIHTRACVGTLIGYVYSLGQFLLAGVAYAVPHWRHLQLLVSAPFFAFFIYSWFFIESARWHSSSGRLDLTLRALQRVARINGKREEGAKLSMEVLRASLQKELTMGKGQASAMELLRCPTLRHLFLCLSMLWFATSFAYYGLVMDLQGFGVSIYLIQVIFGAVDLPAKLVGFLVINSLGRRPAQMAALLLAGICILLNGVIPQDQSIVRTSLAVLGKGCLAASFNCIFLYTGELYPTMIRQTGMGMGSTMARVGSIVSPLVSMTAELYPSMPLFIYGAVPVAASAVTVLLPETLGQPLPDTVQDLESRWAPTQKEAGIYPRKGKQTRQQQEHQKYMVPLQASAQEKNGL
Method: The cells were washed three times in a buffer containing 125 mM NaCl and 25 mM HEPES, pH 7.3, and then lysed in 1 M sodium hydroxide prior to fluorescence measurement.

HepG2 cells = experiment: Mitochondrial toxicity assay (JC-1 mitochondrial membrane potential); assay type: cell-based, human; details: HepG2, highest concentration tested 33 μM
Method: HepG2 cells were counted via hemocytometer and diluted into equal volumes of serum-free Opti-MEM (Life Technologies) and JC-1 Staining Solution (Sigma catalog number CS0390) at 300,000 cells/mL in the presence of 2.5 μg/mL JC-1. Cells were incubated at 37 °C and 5 % CO2 for 20 minutes, rinsed once with Hank's Balanced Salt Solution, and resuspended to the same concentration in serum-free Opti-MEM. Cells were then seeded into 96-well black-sided clear-bottom tissue culture plates at 30,000 cells/100 μL/well. Three replicates per experimental condition group were used. Compound was added with the final dimethyl sulfoxide (DMSO) concentration at 0.5 %. After 2 hours at 37 °C and 5 % CO2, medium was aspirated and plates were read on a Gemini EM spectrofluorometer (Molecular Devices). Fluorescence of JC-1 monomers was monitored by excitation at 490 nm and emission at 530 nm (green) and of aggregates by excitation at 525 nm and emission at 590 nm (red). The ratio of J-aggregates to monomers was calculated, with a lower ratio indicating increased cell toxicity. The percent change in mitochondrial membrane potential (Ψm) was calculated as follows: […]

healthy volunteers [1] = experiment: Clinical effect on fractional excretion of uric acid (phase 1 RDEA594-109); assay type: in vivo, human; details: for Peak FEUA: within 6 hours, baseline 5.8 %
Method: (§1) In each treatment period, plasma samples were collected within 30 minutes before dosing (pre-dose) and at 0.5, 1, 1.5, 2, 3, 4, 5, 6, 8, 10, 12, 16, 24, 30, 36, and 48 hours post-dose. Urine (total catch) was collected pretreatment at hours –24 to –18, –18 to –12, and –12 to 0, and post-dose at hours 0 to 6, 6 to 12, 12 to 24, 24 to 30, 30 to 36, and 36 to 48.
(§2) After protein precipitation of the samples, lesinurad levels in plasma and urine were measured at Ardea Biosciences by quantitative high performance liquid chromatography with tandem mass spectrometry. […] The parameters from individual profiles of lesinurad were determined using noncompartmental methods. Urine samples were analyzed for uric acid and creatinine using enzymatic methods by Covance Clinical Research Unit (Dallas, TX, USA), and pharmacodynamic (PD) parameters were determined by Covance Clinical Research Unit using SAS, Version 8.2 (SAS Institute Inc). Calculated PD parameters for uric acid included urinary excretion, renal clearance, and FEUA. FEUA was calculated by dividing the uric acid clearance by the creatinine clearance.

healthy volunteers [2] = experiment: Clinical effect on serum uric acid (phase 1 RDEA594-109); assay type: in vivo, human
Method: as §1
Serum was collected within 30 minutes prior to drug administration, and at 6, 12, 16, 24, 30, 36, and 48 hours after dosing. Serum urate levels and PD parameters were assayed and calculated by Covance Clinical Research Unit as described above.

[3] = Lesinurad plasma pharmacokinetics and urinary excretion in the clinic; assay type: in vivo, human; details: single 200-mg dose
Method: as §1, §2

OAT3 = system: OAT3; design: method as in earlier work; details: oocytes, 2 µM 3H-estrone sulfate, 60 min; shown in Figure S1; ref 41 (Shen et al.); read-out: IC50 against OAT3; cited from earlier work
OAT1 and OAT3 = details: in vivo; cited from earlier work
[4] = single 200-mg dose, after 6 hours, p < 0.001

## O=C(O)CSc1nnc(Br)n1-c1ccc(C2CC2)c2ccccc12 [Lesinurad, 2-((5-bromo-4-(4-cyclopropylnaphthalen-1-yl)-4H-1,2,4-triazol-3-yl)thio) acetic acid]
OAT1
  IC50: 3.9 ± 0.94 µM
HepG2 cells
  Mitochondrial toxicity: no mitochondrial toxicity
Healthy volunteers [1]; Homo sapiens, single 200-, 400- or 600-mg doses, healthy volunteers, read-out: Half-maximal effective plasma concentration for elevating FEUA
  EC50: 13 µM
Healthy volunteers [1]; healthy volunteers, single doses
  FEUA in some individuals with high plasma lesinurad: up to 35%
Healthy volunteers [1]; [4]
  Elevation of FEUA: 3.6 fold
Healthy volunteers [1]; single 200-mg oral dose
  Peak FEUA: 21.8%
Healthy volunteers [1]; single 400-mg oral dose
  Peak FEUA: 26.7%
Healthy volunteers [1]; single 600-mg oral dose
  Peak FEUA: 32.3%
Healthy volunteers [2]; [4]
  Reduction of sUA: 33%
Healthy volunteers [2]; single 600-mg dose, after 6 hours
  Maximum reduction of sUA: 42%
Healthy volunteers [2]; single 600-mg dose, after 24 hours
  Reduction of sUA: 31%
[3]
  Maximal plasma concentration: 29 µM
[3]; from Cmax and 98.4 % protein binding
  Predicted maximal plasma-free concentration: 0.46 µM
OAT3
  IC50: 3.54 µM
OAT1 and OAT3
  Effect on renal clearance and PD of the OAT substrate furosemide: no effect
